Results as given in article PMC3767324, “Synthesis, Characterization, and BSA Binding Studies of Some New Benzamides Related to Schiff Base” (ISRN Organic Chemistry, 2013).
≈ marks a conversion by molar mass, not a printed value.

Assays:
[1] = tested on: Aspergillus flavus (NCIM 524); assay: agar disc diffusion, zone of inhibition; assay type: cell-based; settings: Aspergillus flavus, NCIM524, 48 h
Protocol: (§1) The in vitro antimicrobial screening effects of the compounds (3 and 5a–j) were individually tested against a panel of bacteria and fungi including Staphylococcus aureus (NCIM 5021), Bacillus subtilis (NCIM 2999), Pseudomonas aeruginosa (NCIM 5029), Escherichia coli (NCIM 2574), Candida. albicans (NCIM 3471), and Aspergillus flavus (NCIM 524). Microbial strains were cultured overnight at 37°C in nutrient and potato dextrose agar medium. All the pure microbial strains were obtained from National Chemical Laboratory (NCL), Pune, India.
(§2) The antibacterial activity of compounds was determined by agar disc diffusion method. Briefly, a suspension of tested bacterial strains was spread on the nutrient agar medium and potato dextrose agar for fungi. The discs (6 mm in diameter) impregnated with test chemicals each dissolved in concentration (100 μg/mL in DMSO) were placed on the inoculated agar and these plates were kept at 4°C for 2 h. The plate was incubated at 37°C for 24 h in case of bacteria and 48 h at 28°C in case of fungi. streptomycin (10 μg/disc) and fluconazole (10 μg/disc) were used as the standards for antibacterial and antifungal activity, respectively. All the samples were performed in triplicate and the zone of inhibition was measured in millimeters.

[2] = tested on: A. niger; assay: agar disc diffusion, zone of inhibition; assay type: cell-based; settings: Aspergillus niger, 48 h
Protocol: [The procedure below names another organism; the source lists this organism under the same test.] as §1, §2

[3] = tested on: Bacillus subtilis (NCIM 2999); assay: agar disc diffusion, zone of inhibition; assay type: cell-based; settings: Bacillus subtilis, NCIM2999, 24 h
Protocol: as §1, §2

[4] = tested on: Pseudomonas aeruginosa (NCIM 5029); assay: agar disc diffusion, zone of inhibition; assay type: cell-based; settings: Pseudomonas aeruginosa, NCIM5029, 24 h
Protocol: as §1, §2

[5] = tested on: Escherichia coli (NCIM 2574); assay: agar disc diffusion, zone of inhibition; assay type: cell-based; settings: Escherichia coli, NCIM2574, 24 h
Protocol: as §1, §2

[6] = tested on: Staphylococcus aureus (NCIM 5021); assay: agar disc diffusion, zone of inhibition; assay type: cell-based; settings: Staphylococcus aureus, NCIM5021, 24 h
Protocol: as §1, §2

[7] = target: T1, bovine serum albumin (BSA) (Bos taurus, UniProt P02769); assay: fluorescence quenching of BSA, binding parameters; settings: for n (number of binding sites) / K sv (Stern-Volmer quenching constant) / K q (quenching rate constant) / shift of BSA fluorescence emission maximum wavelength: 298 K; for K sv (Stern-Volmer quenching constant): BSA 1.00 × 10^−5 mol L^−1, Tris-HCl pH 7.4; for K q (quenching rate constant): τ0 = 10^−8 s; for shift of BSA fluorescence emission maximum wavelength: excitation 280 nm, emission around 340 nm
T1 construct: Bovine serum albumin (BSA), one of the major components in plasma protein; purchased Sigma Aldrich Bangalore
Protocol: All the chemicals and solvents were of AR grade. Solvents were used as supplied by commercial sources without any further purification. BSA (essentially fatty-acid-free) was purchased from Sigma Aldrich Bangalore and stored in refrigerator at 4.0°C. BSA solution was prepared in the Tris-HCl buffer solution (0.05 mol L^−1 Tris, 0.15 mol L^−1 NaCl, pH 7.4) and it was kept in the dark at 298 K. The compounds were prepared as stock solutions using DMF. All other reagents were of analytical reagent grade, and double-distilled water was used during the experiment.
For each of the […] active compounds (5a, 5c, 5g, 5h, 5i, and 5j), the binding parameters with BSA molecules were measured by fluorescence spectroscopy. A solution (2.5 mL) containing 1.00 × 10^−5 mol L^−1 BSA was titrated by successive additions of 1.00 × 10^−3 mol L^−1 NABP stock solution and the concentration of NABP varied from 0 to 3.0 × 10^−5 mol L^−1 (a–g). Titrations were done manually by using microinjector. Fluorescence intensity was measured (excitation at 280 nm and emission at 340 nm). All experiments were performed at 298 K.
In order to investigate the quenching mechanism, the fluorescence quenching data K 0 and n were analyzed by the Stern-Volmer equation (2): (2) F0/F=1+Ksv[Q]=1+Kqτ0[Q], where F 0 and F denote the steady-state fluorescence intensities in the absence and in the presence of quencher, respectively, K 0 is binding constant of BSA, [Q] is the equilibrium concentration of the quencher, and n is the number of binding sites. The average lifetime, τ 0 of the molecule without quencher is 10^−8 s.
When the quenching mechanism is static, the binding parameters between BSA and compounds can be determined using (3): (3) log(F0−F)/F=log Ka+n log[Q].
The plot of log[(F 0 − F)/F] versus log[NABP], binding constant K a, and binding sites n were calculated from the intercept and slope. […] The value of n approximately equaled 1.

[8] = tested on: Aspergillus flavus (NCIM 524); assay: minimum inhibitory concentration by dilution method; assay type: cell-based; settings: Aspergillus flavus, NCIM524
Protocol: as §1
(§3) The minimum inhibitory concentration of the synthesized compounds was determined by dilution method. The compounds were dissolved and then diluted using DMSO; two-fold serial concentrations of the compounds were employed to determine the MIC. In this method, the test concentrations of chemically synthesized compounds were made from 5 to 125 μg/mL.

[9] = tested on: A. niger; assay: as above; assay type: cell-based
Protocol: [The procedure below names another organism; the source lists this organism under the same test.] as §1, §3

[10] = tested on: Bacillus subtilis (NCIM 2999); assay: as above; assay type: cell-based; settings: Bacillus subtilis, NCIM2999
Protocol: as §1, §3

[11] = tested on: Pseudomonas aeruginosa (NCIM 5029); assay: as above; assay type: cell-based; settings: Pseudomonas aeruginosa, NCIM5029
Protocol: as §1, §3

[12] = tested on: Escherichia coli (NCIM 2574); assay: as above; assay type: cell-based; settings: Escherichia coli, NCIM2574
Protocol: as §1, §3

[13] = tested on: Staphylococcus aureus (NCIM 5021); assay: as above; assay type: cell-based
Protocol: as §1, §3

[14] = Staphylococcus aureus, NCIM5021

T1 sequence (P02769 25-607): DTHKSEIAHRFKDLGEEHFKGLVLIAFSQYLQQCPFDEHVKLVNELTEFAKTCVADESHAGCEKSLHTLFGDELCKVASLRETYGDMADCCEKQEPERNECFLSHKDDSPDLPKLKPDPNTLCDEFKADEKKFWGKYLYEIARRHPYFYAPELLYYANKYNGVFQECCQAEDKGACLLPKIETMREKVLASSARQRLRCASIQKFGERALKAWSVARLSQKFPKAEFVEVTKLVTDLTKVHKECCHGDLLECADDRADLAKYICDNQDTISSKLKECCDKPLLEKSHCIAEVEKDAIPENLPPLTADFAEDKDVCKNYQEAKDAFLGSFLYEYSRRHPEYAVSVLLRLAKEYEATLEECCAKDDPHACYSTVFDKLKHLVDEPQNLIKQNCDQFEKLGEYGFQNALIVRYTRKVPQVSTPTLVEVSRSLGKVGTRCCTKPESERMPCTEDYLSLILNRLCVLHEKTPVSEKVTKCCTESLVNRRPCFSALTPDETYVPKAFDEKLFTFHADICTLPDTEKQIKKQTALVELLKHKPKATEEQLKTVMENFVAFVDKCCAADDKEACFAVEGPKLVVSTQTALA

CC(=O)N(C(=O)c1cc(F)ccc1F)c1ccc(N=Cc2cc3ccccc3o2)cc1 [Compound 5a, N-acetyl-N-(4-((benzofuran-2-ylmethylene)amino)phenyl)-2,5-difluorobenzamide]
zone of inhibition at 100 µg/mL [1]: 10.4 mm
zone of inhibition at 100 µg/mL [2]: 11 mm
zone of inhibition at 100 µg/mL [3]: 16 mm
zone of inhibition at 100 µg/mL [4]: 14 mm
zone of inhibition at 100 µg/mL [5]: 12 mm
zone of inhibition at 100 µg/mL [6]: 11 mm
Kd [7]: 1.9 µM
n (number of binding sites) [7]: 1.180
K sv (Stern-Volmer quenching constant) [7]: 99600 L/mol
K q (quenching rate constant) [7]: 9.96e+12 M⁻¹ s⁻¹
shift of BSA fluorescence emission maximum wavelength [7]: slight blue shift
MIC [8]: 15 µg/mL (≈ 35.9 µM)
MIC ([9]; Aspergillus niger): 15 µg/mL (≈ 35.9 µM)
MIC [10]: 12 µg/mL (≈ 28.7 µM)
MIC [11]: 25 µg/mL (≈ 59.8 µM)
MIC [12]: 25 µg/mL (≈ 59.8 µM)
MIC [13, 14]: 12 µg/mL (≈ 28.7 µM)

CC(=O)N(C(=O)c1ccccc1)c1ccc(N=Cc2cc3ccccc3o2)cc1 [Compound 5c, N-acetyl-N -(4-((benzofuran-2-ylmethylene)amino)phenyl)benzamide]
zone of inhibition at 100 µg/mL [1]: 15 mm
zone of inhibition at 100 µg/mL [2]: 9 mm
zone of inhibition at 100 µg/mL [3]: 10 mm
zone of inhibition at 100 µg/mL [4]: 12 mm
zone of inhibition at 100 µg/mL [5]: 15 mm
zone of inhibition at 100 µg/mL [6]: 11 mm
Kd [7]: 38.6 µM
n (number of binding sites) [7]: 0.855
K sv (Stern-Volmer quenching constant) [7]: 19300 L/mol
K q (quenching rate constant) [7]: 1.93e+12 M⁻¹ s⁻¹
shift of BSA fluorescence emission maximum wavelength [7]: red shift
MIC [8]: 40 µg/mL (≈ 105 µM)
MIC ([9]; Aspergillus niger): 40 µg/mL (≈ 105 µM)
MIC [10]: 35 µg/mL (≈ 91.5 µM)
MIC [11]: 50 µg/mL (≈ 131 µM)
MIC [12]: 50 µg/mL (≈ 131 µM)
MIC [13, 14]: 35 µg/mL (≈ 91.5 µM)

CC(=O)N(C(=O)c1cc(F)c(F)c(F)c1)c1ccc(N=Cc2cc3ccccc3o2)cc1 [Compound 5g, N-acetyl-N-(4-(benzofuran-2-ylmethyleneamino)phenyl)-3,4,5-trifluorobenzamide]
zone of inhibition at 100 µg/mL [1]: 14 mm
zone of inhibition at 100 µg/mL [2]: 13.2 mm
zone of inhibition at 100 µg/mL [3]: 13.5 mm
zone of inhibition at 100 µg/mL [4]: 14 mm
zone of inhibition at 100 µg/mL [5]: 12.7 mm
zone of inhibition at 100 µg/mL [6]: 13.6 mm
Kd [7]: 6.37 µM
n (number of binding sites) [7]: 1.281
K sv (Stern-Volmer quenching constant) [7]: 79800 L/mol
K q (quenching rate constant) [7]: 7.98e+12 M⁻¹ s⁻¹
shift of BSA fluorescence emission maximum wavelength [7]: slight blue shift
MIC [8]: 15 µg/mL (≈ 34.4 µM)
MIC ([9]; A. niger, dilution method, average of three replicates): 10 µg/mL (≈ 22.9 µM)
MIC ([9]; Aspergillus niger): 10 µg/mL (≈ 22.9 µM)
MIC [10]: 10 µg/mL (≈ 22.9 µM)
MIC [11]: 10 µg/mL (≈ 22.9 µM)
MIC [12]: 12 µg/mL (≈ 27.5 µM)
MIC ([13]; S. aureus, dilution method, average of three replicates): 9.8 µg/mL (≈ 22.5 µM)
MIC [13, 14]: 9.8 µg/mL (≈ 22.5 µM)

CC(=O)N(C(=O)c1cc(F)cc(F)c1)c1ccc(N=Cc2cc3ccccc3o2)cc1 [Compound 5h, N-acetyl-N-(4-((benzofuran-2-ylmethylene)amino)phenyl)-3,5-difluorobenzamide]
zone of inhibition at 100 µg/mL [1]: 10.9 mm
zone of inhibition at 100 µg/mL [2]: 11.4 mm
zone of inhibition at 100 µg/mL [3]: 12 mm
zone of inhibition at 100 µg/mL [4]: 17 mm
zone of inhibition at 100 µg/mL [5]: 11 mm
zone of inhibition at 100 µg/mL [6]: 14 mm
Kd [7]: 12.7 µM
n (number of binding sites) [7]: 1.136
K sv (Stern-Volmer quenching constant) [7]: 21300 L/mol
K q (quenching rate constant) [7]: 2.13e+12 M⁻¹ s⁻¹
shift of BSA fluorescence emission maximum wavelength [7]: red shift
MIC [8]: 15 µg/mL (≈ 35.9 µM)
MIC ([9]; Aspergillus niger): 10 µg/mL (≈ 23.9 µM)
MIC [10]: 12.4 µg/mL (≈ 29.6 µM)
MIC [11]: 25 µg/mL (≈ 59.8 µM)
MIC [12]: 25 µg/mL (≈ 59.8 µM)
MIC [13, 14]: 12.4 µg/mL (≈ 29.6 µM)

COc1ccc(C(=O)N(C(C)=O)c2ccc(N=Cc3cc4ccccc4o3)cc2)cc1 [Compound 5i, N-acetyl-N-(4-(benzofuran-2-ylmethyleneamino)phenyl)-4-methoxybenzamide]
zone of inhibition at 100 µg/mL [1]: 14 mm
zone of inhibition at 100 µg/mL [2]: 10 mm
zone of inhibition at 100 µg/mL [3]: 10 mm
zone of inhibition at 100 µg/mL [4]: 13 mm
zone of inhibition at 100 µg/mL [5]: 11 mm
zone of inhibition at 100 µg/mL [6]: 14 mm
Kd [7]: 1.57 µM
n (number of binding sites) [7]: 1.208
K sv (Stern-Volmer quenching constant) [7]: 74000 L/mol
K q (quenching rate constant) [7]: 7.4e+12 M⁻¹ s⁻¹
shift of BSA fluorescence emission maximum wavelength [7]: slight blue shift
MIC [8]: 30 µg/mL (≈ 72.7 µM)
MIC ([9]; Aspergillus niger): 35 µg/mL (≈ 84.9 µM)
MIC [10]: 50 µg/mL (≈ 121 µM)
MIC [11]: 35 µg/mL (≈ 84.9 µM)
MIC [12]: 30 µg/mL (≈ 72.7 µM)
MIC [13, 14]: 40 µg/mL (≈ 97 µM)

CC(=O)N(C(=O)c1ccc(O)cc1)c1ccc(N=Cc2cc3ccccc3o2)cc1 [Compound 5j, N-acetyl-N-(4-((benzofuran-2-ylmethylene)amino)phenyl)-4-hydroxybenzamide]
zone of inhibition at 100 µg/mL [1]: 15 mm
zone of inhibition at 100 µg/mL [2]: 9 mm
zone of inhibition at 100 µg/mL [3]: 9 mm
zone of inhibition at 100 µg/mL [4]: 13 mm
zone of inhibition at 100 µg/mL [5]: 11 mm
zone of inhibition at 100 µg/mL [6]: 12 mm
Kd [7]: 91.7 µM
n (number of binding sites) [7]: 0.961
K sv (Stern-Volmer quenching constant) [7]: 23900 L/mol
K q (quenching rate constant) [7]: 2.39e+12 M⁻¹ s⁻¹
shift of BSA fluorescence emission maximum wavelength [7]: red shift
MIC [8]: 40 µg/mL (≈ 100 µM)
MIC ([9]; Aspergillus niger): 40 µg/mL (≈ 100 µM)
MIC [10]: 35 µg/mL (≈ 87.8 µM)
MIC [11]: 50 µg/mL (≈ 125 µM)
MIC [12]: 50 µg/mL (≈ 125 µM)
MIC [13, 14]: 35 µg/mL (≈ 87.8 µM)
